Test results reported in patent US20100267561A1, “HERBICIDAL PYRIDAZINONE DERIVATIVES” (priority 2007, published 2010).

Tests used:
Type in all cases: in vivo
[1] = tested on: Italian ryegrass (Lolium multiflorum); assay: Test B pre-/postemergence plant response
In short: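 Preemergence and postemergence (plants 2-18 cm, 1- to 4-leaf stage) applications used test chemicals in a non-phytotoxic solvent with surfactant. Plants were held in a greenhouse 13 to 15 days, then rated visually against controls on a 0-100 scale (0 no effect, 100 complete control).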

[2] = tested on: spring wheat (Triticum aestivum); assay: Test C pre-/postemergence plant response
In short: (§1)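 Greenhouse-type test under controlled conditions: soil-surface preemergence treatment of sown seed and foliar postemergence treatment of seedlings 2–18 cm tall. Each compound was in non-phytotoxic solvent with surfactant. Response was rated by eye after 15–25 days, 0 to 100, against controls.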

[3] = tested on: green foxtail (Setaria viridis); assay: Test C pre-/postemergence plant response
In short: as §1

[4] = tested on: canarygrass (Phalaris minor); assay: Test C pre-/postemergence plant response
In short: as §1

[5] = tested on: winter wheat (Triticum aestivum); assay: Test C pre-/postemergence plant response
In short: as §1

[6] = tested on: annual bluegrass (Poa annua); assay: Test C pre-/postemergence plant response
In short: as §1

[7] = tested on: winter barley (Hordeum vulgare); assay: Test C pre-/postemergence plant response
In short: as §1

[8] = tested on: blackgrass (Alopecurus myosuroides); assay: Test C pre-/postemergence plant response
In short: as §1

[9] = tested on: downy bromegrass (Bromus tectorum); assay: Test C pre-/postemergence plant response
In short: as §1

[10] = tested on: windgrass (Apera spica-venti); assay: Test C pre-/postemergence plant response
In short: as §1

wild oat (Avena fatua) = assay: Test C pre-/postemergence plant response
In short: as §1

[11] = tested on: pigweed (Amaranthus retroflexus); assay: Test C pre-/postemergence plant response
In short: as §1

[12] = tested on: Italian ryegrass (Lolium multiflorum); assay: Test C pre-/postemergence plant response
In short: as §1

[13] = tested on: wild mustard (Sinapis arvensis); assay: Test C pre-/postemergence plant response
In short: as §1

[14] = Postemergence, 31 g ai/ha, scale 0 to 100, 0 no effect, 100 complete control
[15] = Preemergence, 16 g ai/ha, scale 0 to 100 (0 no effect, 100 complete control)
[16] = Preemergence, 62 g ai/ha, scale 0 to 100
[17] = Preemergence, 8 g ai/ha, scale 0 to 100
[18] = Postemergence, 8 g ai/ha, scale 0 to 100, 0 no effect, 100 complete control
[19] = Postemergence, 16 g ai/ha, scale 0 to 100, 0 no effect, 100 complete control
[20] = Preemergence, 8 g ai/ha, scale 0 to 100 (0 no effect, 100 complete control)
[21] = Preemergence, 31 g ai/ha, scale 0 to 100 (0 no effect, 100 complete control)
[22] = Preemergence, 62 g ai/ha, scale 0 to 100, 0 no effect, 100 complete control
[23] = Postemergence, 62 g ai/ha, scale 0 to 100, 0 no effect, 100 complete control

CCc1cc(-c2ccc(F)cc2)nn1-c1c(O)cnn(C)c1=O [Compound 25]
Ryegrass, Italian plant response rating ([1]; 8 g ai/ha, postemergence, 0-100 scale): 60
Plant response rating, Ryegrass, Italian ([1]; Postemergence, 16 g ai/ha, scale 0 to 100): 80
Plant response rating, Ryegrass, Italian [1, 14]: 85
Plant response rating, Ryegrass, Italian ([1]; Postemergence, 62 g ai/ha, scale 0 to 100): 95
Plant response rating, Ryegrass, Italian [1, 15]: 50
Plant response rating, Ryegrass, Italian ([1]; Preemergence, 31 g ai/ha, 0 to 100 scale, 0 no effect, 100 complete control): 90
Plant response rating, Ryegrass, Italian [1, 16]: 100
Ryegrass, Italian plant response rating [1, 17]: 50
Plant response rating, Wheat, Spring [2, 18]: 0
Plant response rating, Wheat, Spring [2, 19]: 0
Plant response rating, Wheat, Spring [2, 14]: 0
Plant response rating, Wheat, Spring [2, 20]: 0
Plant response rating, Wheat, Spring [2, 15]: 0
Plant response rating, Wheat, Spring [2, 21]: 0
Plant response rating, Wheat, Spring [2, 22]: 0
Plant response rating, Foxtail, Green [3, 18]: 70
Plant response rating, Foxtail, Green [3, 19]: 80
Plant response rating, Foxtail, Green [3, 14]: 95
Plant response rating, Foxtail, Green [3, 23]: 98
Plant response rating, Foxtail, Green [3, 20]: 15
Plant response rating, Foxtail, Green [3, 15]: 25
Plant response rating, Foxtail, Green [3, 21]: 100
Plant response rating, Foxtail, Green [3, 22]: 100
Plant response rating, Canarygrass [4, 18]: 0
Plant response rating, Canarygrass [4, 19]: 0
Plant response rating, Canarygrass [4, 14]: 0
Plant response rating, Canarygrass [4, 23]: 40
Plant response rating, Canarygrass [4, 20]: 0
Plant response rating, Canarygrass [4, 15]: 0
Plant response rating, Canarygrass [4, 21]: 10
Plant response rating, Canarygrass [4, 22]: 35
Plant response rating, Wheat, Winter [5, 18]: 0
Plant response rating, Wheat, Winter [5, 19]: 0
Plant response rating, Wheat, Winter [5, 14]: 0
Plant response rating, Wheat, Winter [5, 20]: 0
Plant response rating, Wheat, Winter [5, 15]: 0
Plant response rating, Wheat, Winter [5, 21]: 0
Plant response rating, Wheat, Winter [5, 22]: 0
Plant response rating, Bluegrass [6, 18]: 0
Plant response rating, Bluegrass [6, 19]: 0
Plant response rating, Bluegrass [6, 14]: 15
Plant response rating, Bluegrass [6, 23]: 15
Plant response rating, Bluegrass [6, 20]: 0
Plant response rating, Bluegrass [6, 15]: 35
Plant response rating, Bluegrass [6, 21]: 40
Plant response rating, Bluegrass [6, 22]: 40
Plant response rating, Barley, Winter [7, 18]: 0
Plant response rating, Barley, Winter [7, 19]: 0
Plant response rating, Barley, Winter [7, 14]: 0
Plant response rating, Barley, Winter [7, 20]: 0
Plant response rating, Barley, Winter [7, 15]: 0
Plant response rating, Barley, Winter [7, 21]: 0
Plant response rating, Barley, Winter [7, 22]: 0
Plant response rating, Blackgrass [8, 18]: 5
Plant response rating, Blackgrass [8, 19]: 35
Plant response rating, Blackgrass [8, 14]: 90
Plant response rating, Blackgrass [8, 23]: 98
Plant response rating, Blackgrass [8, 20]: 0
Plant response rating, Blackgrass [8, 15]: 50
Plant response rating, Blackgrass [8, 21]: 75
Plant response rating, Blackgrass [8, 22]: 75
Plant response rating, Bromegrass, Downy [9, 18]: 0
Plant response rating, Bromegrass, Downy [9, 19]: 0
Plant response rating, Bromegrass, Downy [9, 14]: 0
Plant response rating, Bromegrass, Downy [9, 23]: 20
Plant response rating, Bromegrass, Downy [9, 20]: 20
Plant response rating, Bromegrass, Downy [9, 15]: 20
Plant response rating, Bromegrass, Downy [9, 21]: 20
Plant response rating, Bromegrass, Downy [9, 22]: 35
Plant response rating, Windgrass [10, 18]: 0
Plant response rating, Windgrass [10, 19]: 0
Plant response rating, Windgrass [10, 14]: 35
Plant response rating, Windgrass [10, 23]: 60
Plant response rating, Windgrass [10, 20]: 50
Plant response rating, Windgrass [10, 15]: 75
Plant response rating, Oat, Wild (wild oat (Avena fatua); [18]): 0
Plant response rating, Oat, Wild (wild oat (Avena fatua); [19]): 15
Plant response rating, Oat, Wild (wild oat (Avena fatua); [14]): 90
Plant response rating, Oat, Wild (wild oat (Avena fatua); [23]): 95
Plant response rating, Oat, Wild (wild oat (Avena fatua); [20]): 15
Plant response rating, Oat, Wild (wild oat (Avena fatua); [15]): 15
Plant response rating, Oat, Wild (wild oat (Avena fatua); [21]): 40
Plant response rating, Oat, Wild (wild oat (Avena fatua); [22]): 40
Plant response rating, Pigweed [11, 18]: 0
Plant response rating, Pigweed [11, 19]: 0
Plant response rating, Pigweed [11, 14]: 0
Plant response rating, Pigweed [11, 23]: 20
Plant response rating, Pigweed [11, 20]: 0
Plant response rating, Pigweed [11, 15]: 0
Plant response rating, Pigweed [11, 21]: 0
Plant response rating, Pigweed [11, 22]: 0
Plant response rating, Ryegrass, Italian [12, 18]: 0
Plant response rating, Ryegrass, Italian [12, 19]: 60
Plant response rating, Ryegrass, Italian [12, 14]: 80
Plant response rating, Ryegrass, Italian [12, 23]: 95
Plant response rating, Ryegrass, Italian [12, 20]: 25
Plant response rating, Ryegrass, Italian [12, 15]: 30
Plant response rating, Ryegrass, Italian [12, 21]: 60
Plant response rating, Ryegrass, Italian [12, 22]: 75
Plant response rating, Mustard, Wild [13, 18]: 0
Plant response rating, Mustard, Wild [13, 19]: 0
Plant response rating, Mustard, Wild [13, 14]: 0
Plant response rating, Mustard, Wild [13, 23]: 0
Plant response rating, Mustard, Wild [13, 20]: 0
Plant response rating, Mustard, Wild [13, 15]: 0
Plant response rating, Mustard, Wild [13, 21]: 0

Cc1cc(-c2ccc(Cl)cc2)nn1-c1c(OS(=O)(=O)c2ccccc2[N+](=O)[O-])cnn(C)c1=O [Compound 51]
Plant response rating, Ryegrass, Italian [1, 21]: 100
Plant response rating, Ryegrass, Italian [1, 16]: 100
Ryegrass, Italian plant response rating [1, 17]: 100
Ryegrass, Italian plant response rating ([1]; Preemergence, 16 g ai/ha, scale 0 to 100): 100
Plant response rating, Wheat, Spring [2, 20]: 0
Plant response rating, Wheat, Spring [2, 15]: 0
Plant response rating, Wheat, Spring [2, 21]: 60
Plant response rating, Wheat, Spring [2, 22]: 75
Plant response rating, Foxtail, Green [3, 20]: 10
Plant response rating, Foxtail, Green [3, 15]: 80
Plant response rating, Foxtail, Green [3, 21]: 100
Plant response rating, Foxtail, Green [3, 22]: 100
Plant response rating, Canarygrass [4, 20]: 0
Plant response rating, Canarygrass [4, 15]: 0
Plant response rating, Canarygrass [4, 21]: 80
Plant response rating, Canarygrass [4, 22]: 90
Plant response rating, Wheat, Winter [5, 20]: 0
Plant response rating, Wheat, Winter [5, 15]: 0
Plant response rating, Wheat, Winter [5, 21]: 0
Plant response rating, Wheat, Winter [5, 22]: 40
Plant response rating, Bluegrass [6, 20]: 0
Plant response rating, Bluegrass [6, 15]: 0
Plant response rating, Bluegrass [6, 21]: 0
Plant response rating, Bluegrass [6, 22]: 10
Plant response rating, Barley, Winter [7, 20]: 0
Plant response rating, Barley, Winter [7, 15]: 0
Plant response rating, Barley, Winter [7, 21]: 0
Plant response rating, Barley, Winter [7, 22]: 40
Plant response rating, Blackgrass [8, 20]: 0
Plant response rating, Blackgrass [8, 15]: 35
Plant response rating, Blackgrass [8, 21]: 100
Plant response rating, Blackgrass [8, 22]: 100
Plant response rating, Bromegrass, Downy [9, 20]: 0
Plant response rating, Bromegrass, Downy [9, 15]: 0
Plant response rating, Bromegrass, Downy [9, 21]: 0
Plant response rating, Bromegrass, Downy [9, 22]: 50
Plant response rating, Windgrass [10, 20]: 0
Plant response rating, Windgrass [10, 15]: 10
Plant response rating, Windgrass [10, 21]: 20
Plant response rating, Windgrass [10, 22]: 80
Plant response rating, Oat, Wild (wild oat (Avena fatua); [20]): 0
Plant response rating, Oat, Wild (wild oat (Avena fatua); [15]): 0
Plant response rating, Oat, Wild (wild oat (Avena fatua); [21]): 35
Plant response rating, Oat, Wild (wild oat (Avena fatua); [22]): 50
Plant response rating, Pigweed [11, 20]: 0
Plant response rating, Pigweed [11, 15]: 0
Plant response rating, Pigweed [11, 21]: 0
Plant response rating, Pigweed [11, 22]: 0
Plant response rating, Ryegrass, Italian [12, 20]: 0
Plant response rating, Ryegrass, Italian [12, 15]: 90
Plant response rating, Ryegrass, Italian [12, 22]: 90
Plant response rating, Mustard, Wild [13, 15]: 0
Plant response rating, Mustard, Wild [13, 21]: 0
Plant response rating, Mustard, Wild [13, 22]: 0
